Laboratory results published in paper PMC11200976, “Pitavastatin Calcium Confers Fungicidal Properties to Fluconazole by Inhibiting Ubiquinone Biosynthesis and Generating Reactive Oxygen Species” (Antioxidants, 2024).
Structures can show the parent of a compound that is named as a salt. Where two headings read alike, the source gives them in different places.

Key:
[1] = system: C. albicans SC5314, SN152, cmp1-aid∆/cmp1-aid∆, and PADH1-UPC2 strains; assay: FLC disk diffusion assays (25 μg FLC disk, 5 μM adjuvant); assay type: cell-based, Candida albicans; details: for effect on FLC tolerance in FLC disk diffusion, all four strains: SC5314, SN152, cmp1-aid∆/cmp1-aid∆; for synergistic lethal effects with FLC compared to GdA and CsA (disk diffusion): Figure S3
Method: Yeast cells were cultured overnight at a temperature of 30 °C, and the resulting cell suspension was diluted to a concentration of 1 × 10^7 cells/mL in phosphate-buffered saline (PBS). At a concentration of 5 μM, the drugs were individually added to YPD plates for disk assays using a 25 μg FLC disk (6 mm, Liofilchem, Roseto degli Abruzzi, Italy). The plates were then incubated at 30 °C for 48 h. Subsequently, the disk was transferred to a drug-free YPD plate, which was incubated at 30 °C for 24 h and photographed.

[2] = Acute toxicity, Up-and-Down procedure (OECD 425), intraperitoneal; assay type: in vivo; details: C57BL/6, mouse, in vivo, ip, mice
Method: (§1) Following a previously described methodology, the intraperitoneal route was employed in adult mice. In brief, the primary test involved a sequential administration of doses at intervals of at least 48 h, with one mouse being dosed at a time. Initially, a dose below LD50 was administered intraperitoneally to a mouse. If the mouse survived, the subsequent mouse would receive 1.3 times the initial dose. Conversely, if the mouse died, the subsequent mouse would receive a dose decreased by 1.3 times the initial dose. Each mouse was monitored for 48 h before determining the subsequent mouse’s dosage and administration. The experiment was terminated upon five “survive or die” reversals within a consecutive set of six animals tested. Subsequently, the LD50 and its corresponding confidence interval were computed based on the conditions observed in all mice after the experiment.

C. albicans [3] = assay: Broth microdilution assay of synergistic lethality with 4 μg/mL FLC (recovery on drug-free YPD); assay type: cell-based, Candida albicans; details: for synergistic lethal concentration (converts FLC from fungistatic to fungicidal): with 4 μg/mL FLC, tested 100 μM to 0.1953 μM, 30 °C, 48 h
C. albicans [4] = assay: Dose–matrix titration assays (synergy, with YPD recovery plates); assay type: cell-based, Candida albicans; details: for effect of azole combined with PIT: Figure 5B
Method: The synergistic effects of drugs were conducted following the same procedure as the MIC assays. Specifically, 50 μL of drug A was distributed through two-fold serial dilution across seven plate columns. Subsequently, 50 μL of drug B was distributed in a two-fold serial dilution manner along seven rows of the plate. Furthermore, 100 μL of C. albicans cultures, adjusted to a density of 1 × 10^3 cells/mL, was dispensed into wells containing drugs and one control well devoid of any drugs. Before the 48 h OD600 readings, the plates were subjected to meticulous agitation to ensure the deposition of a representative 2 μL aliquot from each well onto newly prepared YPD recovery plates, thereby facilitating the evaluation of cellular recuperation following drug treatments. The recovery plates were subsequently incubated at a temperature of 30 °C for a duration ranging from 24 to 48 h, after which they were photographed. The experimental procedures were conducted in triplicate to ensure reliability and reproducibility.

mice = assay: Acute toxicity, Up-and-Down procedure (OECD 425), intraperitoneal; assay type: in vivo
Method: as §1

[5] = concentration of the compound that is synergistically lethal with 4 μg/mL FLC, C. albicans, recovery on drug-free YPD

## COC1=C2C[C@@H](C)C[C@H](OC)[C@H](O)[C@@H](C)/C=C(\C)[C@H](OC(N)=O)[C@@H](OC)/C=C\C=C(/C)C(=O)NC(=CC1=O)C2=O [GdA, geldanamycin]
[1]; PADH1-UPC2
  effect on FLC tolerance in FLC disk diffusion, all four strains: effectively eradicated the zones of FLC inhibition
[2]
  LD50 at 48 h: 19 mg/kg

## CO[C@H]1C[C@H](O[C@@H]2/C(C)=C/C[C@@H]3C[C@@H](C[C@]4(CC[C@H](C)[C@@H](C5CCCCC5)O4)O3)OC(=O)[C@@H]3C=C(C)/C(=N/O)[C@H]4OC/C(=C\C=C\[C@@H]2C)[C@]43O)O[C@@H](C)[C@@H]1O [Selamectin]
C. albicans [3]
  Synergistic lethal concentrations: 12.5 µM

## O=C1NCCN1CCN1CCC(c2cn(-c3ccc(F)cc3)c3ccc(Cl)cc23)CC1 [Sertindole]
C. albicans [3]; [5]
  Synergistic lethal concentrations: 25 µM

## CN[C@H]1CC[C@@H](c2ccc(Cl)c(Cl)c2)c2ccccc21.Cl [Sertraline (hydrochloride)]
C. albicans [3]; [5]
  Synergistic lethal concentrations: 25 µM

## O=C(O)CCC(=O)O.O=C(O[C@H]1CN2CCC1CC2)N1CCc2ccccc2[C@@H]1c1ccccc1 [Solifenacin (Succinate)]
C. albicans [3]; [5]
  Synergistic lethal concentrations: 100 µM

## CCOc1ccc(Cc2cc([C@@H]3O[C@H](SC)[C@@H](O)[C@H](O)[C@H]3O)ccc2Cl)cc1 [Sotagliflozin]
C. albicans [3]; [5]
  Synergistic lethal concentrations: 100 µM

## CC(C)(C)C(O)/C=C/c1ccc2c(c1)OCO2 (stereo not shown) [Stiripentol]
C. albicans [3]; [5]
  Synergistic lethal concentrations: 100 µM

## COc1cc(C)c2c(Oc3cccc(C(F)(F)F)c3)c(OC)cc(NC(C)CCCN)c2n1.O=C(O)CCC(=O)O (stereo not shown) [Tafenoquine (Succinate)]
C. albicans [3]; [5]
  Synergistic lethal concentrations: 25 µM

## Cn1ncnc1[C@H]1c2n[nH]c(=O)c3cc(F)cc(c23)N[C@@H]1c1ccc(F)cc1 [Talazoparib tosylate]
C. albicans [3]; [5]
  Synergistic lethal concentrations: 100 µM

## CCCCCNC(=N)N/N=C/c1c[nH]c2ccc(OC)cc12.O=C(O)/C=C\C(=O)O [Tegaserod (maleate)]
C. albicans [3]; [5]
  Synergistic lethal concentrations: 6.25 µM

## CN(C/C=C/C#CC(C)(C)C)Cc1cccc2ccccc12 [Terbinafine]
C. albicans [3]; [5]
  Synergistic lethal concentrations: 6.25 µM

## CC(C)(CO)c1cc2cc(NC(=O)C3(c4ccc5c(c4)OC(F)(F)O5)CC3)c(F)cc2n1C[C@@H](O)CO [Tezacaftor]
C. albicans [3]; [5]
  Synergistic lethal concentrations: 100 µM

## CSc1ccc2c(c1)N(CCC1CCCCN1C)c1ccccc1S2.Cl (stereo not shown) [Thioridazine (hydrochloride)]
C. albicans [3]; [5]
  Synergistic lethal concentrations: 100 µM

## CCCCCCCCCCCCCCCC[N+](C)(C)CCN(Cc1ccc(OC)cc1)c1ncccn1.[Br-] [Thonzonium (bromide)]
C. albicans [3]; [5]
  Synergistic lethal concentrations: 100 µM

## O=C(O)Cc1cc(I)c(Oc2ccc(O)c(I)c2)c(I)c1 [Tiratricol]
C. albicans [3]; [5]
  Synergistic lethal concentrations: 100 µM

## Cc1ccc(O)c([C@H](CCN(C(C)C)C(C)C)c2ccccc2)c1 [Tolterodine]
C. albicans [3]; [5]
  Synergistic lethal concentrations: 100 µM

## CC(C)OC(=O)CCC/C=C\C[C@@H]1[C@@H](/C=C/[C@@H](O)COc2cccc(C(F)(F)F)c2)[C@H](O)C[C@@H]1O [Travoprost]
C. albicans [3]; [5]
  Synergistic lethal concentrations: 100 µM

## Cl.OC(CCN1CCCCC1)(c1ccccc1)C1CCCCC1 (stereo not shown) [Trihexyphenidyl (hydrochloride)]
C. albicans [3]; [5]
  Synergistic lethal concentrations: 100 µM

## Cc1onc(-c2ccccc2)c1-c1ccc(S(N)(=O)=O)cc1 [Valdecoxib]
C. albicans [3]; [5]
  Synergistic lethal concentrations: 100 µM

## O=C(O)C(c1ccccc1)(c1ccccc1)c1ccccc1.OCc1cc([C@@H](O)CNCCCCCCOCCOCc2c(Cl)cccc2Cl)ccc1O [Vilanterol (trifenatate]
C. albicans [3]; [5]
  Synergistic lethal concentrations: 100 µM

## CC1=C(C)C(=O)C(CCCCCCCCCC[P+](c2ccccc2)(c2ccccc2)c2ccccc2)=CC1=O.[Br-] [Visomitin]
C. albicans [3]; [5]
  Synergistic lethal concentrations: 50 µM

## C=C/C=C/C[C@@H](C)[C@@H](O)[C@H]1C(=O)N[C@@H](CC)C(=O)N(C)CC(=O)N(C)[C@@H](CC(C)C)C(=O)N[C@@H](C(C)C)C(=O)N(C)[C@@H](CC(C)C)C(=O)N[C@@H](C)C(=O)N[C@H](C)C(=O)N(C)[C@@H](CC(C)C)C(=O)N(C)[C@@H](CC(C)C)C(=O)N(C)[C@@H](C(C)C)C(=O)N1C [Voclosporin]
C. albicans [3]; [5]
  Synergistic lethal concentrations: 0.1953 µM

## Br.Cc1ccc(Sc2ccccc2N2CCNCC2)c(C)c1 [Vortioxetine (hydrobromide)]
C. albicans [3]; [5]
  Synergistic lethal concentrations: 100 µM

## CC(C)n1nccc1-c1ncccc1COc1cccc(O)c1C=O [Voxelotor]
C. albicans [3]; [5]
  Synergistic lethal concentrations: 100 µM

## COCc1c(C(C)C)nc(C(C)C)c(/C=C/[C@@H](O)C[C@@H](O)CC(=O)O)c1-c1ccc(F)cc1 [cerivastatin sodium]
C. albicans [3]
  synergistic lethal concentration (converts FLC from fungistatic to fungicidal): ≤ 6.25 µM
C. albicans [4]; FLC ≤4 μg/mL, YPD, 30 °C, 48 h
  concentration that renders FLC fungicidal (no recovery on YPD solid medium): ≤ 3.125 µM
[1]; PADH1-UPC2
  effect on FLC tolerance in FLC disk diffusion, all four strains: made FLC fungicidal

## N=C(NCCCCCCNC(=N)NC(=N)Nc1ccc(Cl)cc1)NC(=N)Nc1ccc(Cl)cc1.O=C(O)[C@H](O)[C@@H](O)[C@H](O)[C@H](O)CO.O=C(O)[C@H](O)[C@@H](O)[C@H](O)[C@H](O)CO [chlorhexidine digluconate]
C. albicans [4]; FLC ≤4 μg/mL, YPD, 30 °C, 48 h
  concentration that renders FLC fungicidal (no recovery on YPD solid medium): ≤ 3.125 µM
[1]; PADH1-UPC2
  effect on FLC tolerance in FLC disk diffusion, PADH1-UPC2 strain: unsuccessful in reducing FLC tolerance

## C[C@@H]1CC[C@@]2(OC1)O[C@H]1C[C@H]3[C@@H]4CC=C5C[C@@H](O[C@@H]6O[C@H](CO)[C@@H](O[C@@H]7O[C@@H](C)[C@H](O)[C@@H](O)[C@H]7O)[C@H](O)[C@H]6O[C@@H]6O[C@@H](C)[C@H](O)[C@@H](O)[C@H]6O)CC[C@]5(C)[C@H]4CC[C@]3(C)[C@H]1[C@@H]2C [dioscin]
C. albicans [3]; [5]
  Synergistic lethal concentrations: 6.25 µM
C. albicans [4]; FLC ≤4 μg/mL, YPD, 30 °C, 48 h
  concentration that renders FLC fungicidal (no recovery on YPD solid medium): ≤ 3.125 µM
[1]
  synergistic lethal effects with FLC compared to GdA and CsA (disk diffusion): weaker synergistic lethal effects
[2]
  LD50 at 48 h: 32 mg/kg

## CCCCCCCCCCCC[N+](C)(C)CCOc1ccccc1 [domiphen bromide]
C. albicans [4]; FLC ≤4 μg/mL, YPD, 30 °C, 48 h
  concentration that renders FLC fungicidal (no recovery on YPD solid medium): ≤ 3.125 µM
[1]
  synergistic lethal effects with FLC compared to GdA and CsA (disk diffusion): weaker synergistic lethal effects

## CC(C)n1c(/C=C/C(O)CC(O)CC(=O)O)c(-c2ccc(F)cc2)c2ccccc21 (stereo not shown) [fluvastatin sodium, reference compound]
C. albicans [3]
  synergistic lethal concentration (converts FLC from fungistatic to fungicidal): ≤ 6.25 µM

## CCC(C)n1ncn(-c2ccc(N3CCN(c4ccc(OCC5COC(Cn6cncn6)(c6ccc(Cl)cc6Cl)O5)cc4)CC3)cc2)c1=O (stereo not shown) [itraconazole]
C. albicans [4]
  effect of azole combined with PIT: synergistic lethal effects

## CC(=O)N1CCN(c2ccc(OCC3COC(Cn4ccnc4)(c4ccc(Cl)cc4Cl)O3)cc2)CC1 (stereo not shown) [ketoconazole]
C. albicans [4]
  effect of azole combined with PIT: synergistic lethal effects

## Clc1ccc(COC(Cn2ccnc2)c2ccc(Cl)cc2Cl)c(Cl)c1 (stereo not shown) [miconazole]
C. albicans [4]
  effect of azole combined with PIT: synergistic lethal effects

## CCCCCCCCN=c1ccn(CCCCCCCCCCn2ccc(=NCCCCCCCC)cc2)cc1 [octenidine dihydrochloride]
C. albicans [4]; FLC ≤4 μg/mL, YPD, 30 °C, 48 h
  concentration that renders FLC fungicidal (no recovery on YPD solid medium): ≤ 3.125 µM
[1]
  synergistic lethal effects with FLC compared to GdA and CsA (disk diffusion): weaker synergistic lethal effects

## CC[C@@H]1/C=C(\C)C[C@H](C)C[C@H](OC)[C@H]2O[C@@](O)(C(=O)C(=O)N3CCCC[C@H]3C(=O)O[C@H](/C(C)=C/[C@@H]3CC[C@H](Cl)[C@H](OC)C3)[C@H](C)[C@@H](O)CC1=O)[C@H](C)C[C@@H]2OC [pimecrolimus]
C. albicans [3]; [5]
  Synergistic lethal concentrations: 0.1953 µM
C. albicans [4]; FLC ≤4 μg/mL, YPD, 30 °C, 48 h
  concentration that renders FLC fungicidal (no recovery on YPD solid medium): ≤ 3.125 µM
[1]; PADH1-UPC2
  effect on FLC tolerance in FLC disk diffusion, all four strains: made FLC fungicidal
[2]
  LD50 at 48 h: 42 mg/kg

## Oc1cc(Cl)ccc1Oc1ccc(Cl)cc1Cl [triclosan]
C. albicans [3]; [5]
  Synergistic lethal concentrations: 0.3906 µM
C. albicans [4]; FLC ≤4 μg/mL, YPD, 30 °C, 48 h
  concentration that renders FLC fungicidal (no recovery on YPD solid medium): ≤ 3.125 µM
[1]; PADH1-UPC2
  effect on FLC tolerance in FLC disk diffusion, all four strains: made FLC fungicidal
[2]
  LD50 at 48 h: 62.6 mg/kg

## C[C@@H](c1ncncc1F)[C@](O)(Cn1cncn1)c1ccc(F)cc1F [voriconazole]
C. albicans [4]
  effect of azole combined with PIT: synergistic lethal effects

## Cc1ccc(Sc2ccccc2N2CCNCC2)c(C)c1 [vortioxetine]
C. albicans [3]; [5]
  Synergistic lethal concentrations: 6.25 µM
C. albicans [4]; FLC ≤4 μg/mL, YPD, 30 °C, 48 h
  concentration that renders FLC fungicidal (no recovery on YPD solid medium): ≤ 3.125 µM
[1]; PADH1-UPC2
  effect on FLC tolerance in FLC disk diffusion, all four strains: made FLC fungicidal
[2]
  LD50 at 48 h: 48.3 mg/kg

## bleomycin sulfate
C. albicans [4]
  concentration that renders FLC fungicidal (no recovery on YPD solid medium): ≤ 3.125 µM
[1]; cmp1-aid∆/cmp1-aid∆
  effect on FLC tolerance in FLC disk diffusion, cmp1-aid∆/cmp1-aid∆ strain: failed to clear the zone of FLC inhibition
mice
  LD50: 21.57 mg/kg

## ivermectin
C. albicans [3]; [5]
  Synergistic lethal concentrations: 3.125 µM
C. albicans [4]; FLC ≤4 μg/mL, YPD, 30 °C, 48 h
  concentration that renders FLC fungicidal (no recovery on YPD solid medium): ≤ 3.125 µM
[1]
  synergistic lethal effects with FLC compared to GdA and CsA (disk diffusion): weaker synergistic lethal effects
